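Each compound was tested at five concentrations against cells in 96-well plates for 48 hours. GI50 = concentration required for 50% inhibition of growth. TGI is the concentration that stops growth completely.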
system: OVCAR-5 ovarian; test: NCI-60 cell line screen, 48 h

Structure (SMILES)	TGI [µM]	GI50 [µM]
N#CC(/C(=N/NC(=O)C(=O)NN)C(=O)NC12CC3CC(CC(C3)C1)C2)c1ccccc1 (stereo not drawn)	> 100	–
CC(=O)OCC1OC([S-])C(OC(C)=O)C(OC(C)=O)C1OC(C)=O.CC[PH+](CC)CC.CC[PH+](CC)CC.[Au].[Au] (stereo not drawn)	2.96	1.59
COc1cc2c(cc1OCc1ccccc1)CNCC2	> 100	–
O=C(CN1CCCCC1)N1CCc2c([nH]c3ccccc23)C1c1cccnc1 (stereo not drawn)	> 100	–
COc1cc2c(cc1OC)C13CCN4CC5=CCOC6CC(=O)N2C1C6C5CC43O (stereo not drawn)	> 100	–
CCCCCCCCCc1cc(=O)c2c(O)cccc2o1	> 100	–
O=C(C[n+]1ccccc1)NNC(=O)/C(=C/c1ccc2c(c1)OCO2)NC(=O)c1ccccc1	> 100	–
O=S(O)CCCCSSCc1ccccc1CSSCCCCS(=O)O	> 100	–
Clc1ccc(-c2c(C3=NCCN3)nnn2-c2ccc(Cl)cc2)cc1	> 100	–
CC(C)(C)N1CC2(CCCCC2)C1=O	> 100	–
O=C(CCC(=O)Nc1cccc(Cl)c1)CC(=O)c1ccc(Cl)cc1	> 100	–
O=C(CCCN1CC=C(n2c(=O)[nH]c3ccccc32)CC1)c1ccc(F)cc1	> 100	94.1
CC(=O)Oc1ccccc1C(=O)N=C1[Se]CCCN1C(=O)c1ccccc1OC(C)=O	8.66	3.25
CC(=O)c1c(CBr)n([O-])c2ccccc2[n+]1=O	44.4	18.5
COc1ccc(C2C(C#N)=C(N)OC3=C2COc2ccc(F)cc23)cc1OC (stereo not drawn)	80.9	23.7
CCN(CC)CC(C)(C)C(=O)/C=C/c1ccc(Cl)c(Cl)c1	3.49	1.65
NC1CCCC[C@H]1N.N[C@@H]1CCCC[C@@H]1N.O=C(P(=O)([O-])[O-])P(=O)([O-])[O-].[Pt+4].[Pt+4]	> 100	> 100
O=C(CSc1nnc(-c2ccccc2NC(=O)C(F)(F)F)c(=O)[nH]1)NC(=O)Nc1ccccc1	> 100	–
O=C1c2ccn(CCCCNC(CO)(CO)CO)c2C(=O)c2c1c(O)c1ccccc1c2O	4.4	1.91
CCOC(=O)c1[nH]c(COC(C)=O)c(CCCOC(C)=O)c1CCCOC(C)=O	> 100	–
CCN1C(=O)N(CC)C2C1NC(=S)N2/N=C/C=C/c1cccs1 (stereo not drawn)	> 100	0.544
COc1ccc(-c2cc(-c3cccn3C)c(C#N)c(N)n2)cc1OC	> 100	> 100
COc1ccc(C(=O)C(CO)Oc2ccccc2OC)cc1OC (stereo not drawn)	> 100	–

system: HOP-62 NSCLC; test: NCI-60 cell line screen, 48 h

Structure (SMILES)	TGI [µM]	GI50 [µM]
COc1ccccc1/C=C/c1cnccn1	> 10	–
CCCCCc1c(C)[nH]c(/C=C2\N=C(c3ccc[nH]3)C=C2CC)c1C	0.0795	0.0128
CC(C)(C)C(=O)/C=C/c1ccc(Oc2ccccc2)cc1	86.4	–
CC1=C(C(=O)Nc2c(C)cccc2C)C(c2ccccc2Cl)C(C(=O)Nc2c(C)cccc2C)=C(C)N1	> 100	–
Cc1cn2c(/C=C3/C(=O)Nc4ccccc43)c(-c3ccc(Cl)cc3)nc2s1	15.3	8.46
O=C1CSC(Cc2nc3ccccc3[nH]2)=N1	44.1	–
COc1ccccc1NC(=O)C1=C(C)NC(C)=C(C(=O)Nc2ccccc2OC)C1c1ccc([N+](=O)[O-])cc1	> 100	–
CCOC(=O)[C@H](CCCNC(=O)OC(C)(C)C)NCc1ccc(OC)c(OC)c1	> 100	–
COC(COC(=O)N1CCN(C=O)CC1)C1=C(N2CC2)C(=O)C(C)=C(N2CC2)C1=O (stereo not drawn)	6.57	–
O=C(N/N=C\c1cc(Br)ccc1O)c1ccncc1	66.2	1.57
O=C(/C=C/c1c(O)ccc2ccccc12)c1ccc2ccccc2c1	> 100	–
O=C(O)c1cccc(OCCO)c1	> 100	–
O=[N+]([O-])c1ccc(-n2nnc(C3=NCCCN3)c2-c2ccc(Cl)cc2)cc1	> 100	–
COC(=O)C12C3C4C5(C(=O)OC)C(C1C35C(=O)N(C(C)C)C(C)C)C42C(=O)N(C(C)C)C(C)C (stereo not drawn)	> 50	–
N#CC(C#N)=c1[nH]c2cccc3c2-c2c(cccc2c3=C(C#N)C#N)[nH]1	> 100	–
COC(=O)/C=C/C1C(C(=O)OC)C2(C(=O)OC)CCC1(C(=O)OC)N2 (stereo not drawn)	> 100	–
N#CC(/C(=N/NC(=O)C(=O)NN)C(=O)NC12CC3CC(CC(C3)C1)C2)c1ccccc1 (stereo not drawn)	> 100	–
